Test results reported in ChEMBL document CHEMBL4152294, “Design, synthesis, structure-activity relationships study and X-ray crystallography of 3-substituted-indolin-2-one-5-carboxamide derivatives as PAK4 inhibitors” (Eur J Med Chem, 2018).

Tests used:
A549 = assay: Antiproliferative activity against human A549 cells after 72 hrs by CCK8 assay; assay type: functional, cell-based; settings: A549, 72 h
HCT-116 = assay: Antiproliferative activity against human HCT116 cells after 72 hrs by CCK8 assay; assay type: functional, cell-based; settings: HCT-116, 72 h

Row | SMILES | IC50 (A549) [nM] | IC50 (HCT-116) [nM]
1 | Cc1nc(Nc2n[nH]c3c2CN(C(=O)N[C@H](CN(C)C)c2ccccc2)C3(C)C)c2sccc2n1 [PF-03758309] | 463 | 39
2 | O=C1Nc2ccc(C(=O)N[C@H](CO)c3ccccc3)cc2/C1=C(/c1ncc[nH]1)c1ccccc1F | 666 | 88
3 | CCc1ncc(/C=C2\C(=O)Nc3ccc(C(=O)N[C@H](CO)c4ccccc4)cc32)[nH]1 | 29800 | 2860
4 | Cc1ncc(/C=C2\C(=O)Nc3ccc(C(=O)N[C@H](CO)c4ccccc4)cc32)[nH]1 | 56100 | 4090
5 | O=C1Nc2ccc(C(=O)N[C@H](CO)c3ccccc3)cc2/C1=C(/c1ncc[nH]1)c1ccccc1Cl | 1280 | 635
6 | Cc1c[nH]c(/C(=C2\C(=O)Nc3ccc(C(=O)N[C@H](CO)c4ccccc4)cc32)c2ccccc2)n1 | 511 | 77
7 | Cc1nc(/C(=C2\C(=O)Nc3ccc(C(=O)N[C@H](CO)c4ccccc4)cc32)c2ccccc2)[nH]c1C | 17700 | 2580
